Here are results for 4 compounds from ChEMBL document CHEMBL1828555, “Primary amino acid derivatives: substitution of the 4'-N'-benzylamide site in (R)-N'-benzyl 2-amino-3-methylbutanamide, (R)-N'-benzyl 2-amino-3,3-dimethylbutanamide, and (R)-N'-benzyl 2-amino-3-methoxypropionamide provides potent anticonvulsants with pain-attenuating properties” (J Med Chem, 2011).

SMILES strings stand for the structures. Calls of active or inactive are those of the source. No cut-off for these calls is given here.

Series [1] relates to Mus musculus. The experiment in a line: Analgesic activity in NMRI mouse assessed as reduction in formalin-induced neuropathic pain at 37 mg/kg, ip. The class given is functional. More on the design: scale not given: the % may be the effect or the level left. Conditions: route intraperitoneal.
The subject of series [2] is Rattus norvegicus. The experiment in a line: Anticonvulsant activity in po dosed albino Sprague-Dawley rat assessed as protection against maximal electroshock seizure. The series is classed as functional.
Series [3] relates to Rattus norvegicus. The experiment in a line: Protective index, ratio of TD50 for po dosed albino Sprague-Dawley rat to ED50 for po dosed albino Sprague-Dawley rat by maximal electroshock test. The series is classed as functional. For orientation: The maximal electroshock test induces tonic seizures with an electrical stimulus.
Series [4] deals with Mus musculus. The experiment in a line: Anticonvulsant activity in ip dosed albino CF1 mouse assessed as protection against 6 Hz psychomotor seizure after 30 mins. Conditions: 0.5 h. The series is classed as functional.
Series [5] is described as follows: Neurotoxicity in ip dosed albino CF1 mouse assessed as median neurological impairing dose after 30 mins. The series is classed as toxicity, organism-based. Conditions: in vivo.
For series [6], the system named is Mus musculus. The experiment in a line: Anticonvulsant activity in ip dosed albino CF1 mouse assessed as time of peak effect for protection against maximal electroshock-induced seizure. The series is classed as functional.
Series [7] in a line: Neurotoxicity in ip dosed NMRI mouse assessed as median neurological impairing dose after 30 mins by rotarod test. The class given is toxicity, organism-based. Conditions: in vivo. (In general: Falling from the rotarod earlier than controls is read as motor impairment.)
The subject of series [8] is Rattus norvegicus. The experiment in a line: Anticonvulsant activity in po dosed albino Sprague-Dawley rat assessed as time of peak effect for protection against maximal electroshock seizure. The series is classed as functional.
Series [9] has as its system Mus musculus. The experiment in a line: Anticonvulsant activity in ip dosed albino CF1 mouse assessed as protection against maximal electroshock-induced seizure after 30 mins. The series is classed as functional. Conditions: 0.5 h.
Series [10] deals with Mus musculus. The experiment in a line: Protective index, ratio of TD50 for ip dosed NMRI mouse to ED50 for ip dosed NMRI mouse by maximal electroshock test. The series is classed as functional.
A short description of series [11]: Toxicity in po dosed albino Sprague-Dawley rat assessed as behavioural toxicity. The series is classed as organism-based. Conditions: in vivo.
Series [12] concerns Mus musculus. The experiment in a line: Anticonvulsant activity in ip dosed 6 Hz psychomotor seizure model of NMRI mouse assessed as protection against seizure after 30 minutes. The series is classed as functional. Conditions: 0.5 h.
The test system of series [13] is Mus musculus. The experiment in a line: Analgesic activity in NMRI mouse assessed as reduction in formalin-induced neuropathic pain at 12 mg/kg, ip. The series is classed as functional, organism-based. More on the design: dose 12 mg/kg.
Series [14] deals with Mus musculus. The experiment in a line: Anticonvulsant activity in ip dosed albino CF1 mouse assessed as protection against subcutaneous pentylenetetrazol-induced seizure. The series is classed as functional, organism-based.
Series [15] deals with Mus musculus. The experiment in a line: Neurotoxicity in ip dosed albino CF1 mouse assessed as time of peak effect for median neurological impairing. The class given is toxicity, organism-based. Conditions: in vivo.
Series [16] relates to Mus musculus. The experiment in a line: Anticonvulsant activity in ip dosed NMRI mouse assessed as protection against maximal electroshock seizure after 30 mins. The class given is functional. Conditions: 0.5 h.
Series [17] concerns Mus musculus. The experiment in a line: Protective index, ratio of TD50 for ip dosed NMRI mouse to ED50 for ip dosed formalin-induced neuropathic pain model of NMRI mouse. The class given is functional.
The subject of series [18] is Mus musculus. The experiment in a line: Analgesic activity in ip dosed NMRI mouse assessed as reduction in formalin-induced neuropathic pain after 30 mins. Conditions: 0.5 h. The series is classed as functional.
For series [19], the system named is Mus musculus. The experiment in a line: Anticonvulsant activity in ip dosed maximal electroshock seizure model of NMRI mouse assessed as minimal active dose after 30 mins. The class given is functional.
The subject of series [20] is Mus musculus. The experiment in a line: Analgesic activity in ip dosed albino CF1 mouse assessed as reduction of formalin-induced neuropathic pain after 30 mins. The series is classed as functional. Conditions: 0.5 h.
In series [21] the test system is Mus musculus. The experiment in a line: Analgesic activity in ip dosed albino CF1 mouse assessed as time of peak effect for reduction of formalin-induced neuropathic pain. The class given is functional.
Series [22] concerns Mus musculus. The experiment in a line: Protective index, ratio of TD50 for ip dosed albino CF1 mouse to ED50 for ip dosed albino CF1 mouse by maximal electroshock test. The series is classed as functional.
The subject of series [23] is Mus musculus. The experiment in a line: Anticonvulsant activity in ip dosed albino CF1 mouse assessed as time of peak effect for protection against 6 Hz psychomotor seizure. The series is classed as functional.
The test system of series [24] is Mus musculus. The experiment in a line: Anticonvulsant activity in ip dosed 6 Hz psychomotor seizure model of NMRI mouse assessed as minimal active dose after 30 mins. The series is classed as functional.

By ED50 is commonly meant the dose at which the effect has come halfway, by size or by number of responders. What is called TD50 is the 50% point of the dose-response relation for the toxic effect studied.

As to `COC[C@@H](N)C(=O)NCc1ccc(COc2cccc(F)c2)cc1`, in the series on Mus musculus [1], the Activity is given as 94%. The ED50 in the series with Rattus norvegicus [2] was 12 mg/kg; in the series with Mus musculus [4], below 30 mg/kg; in the series on Mus musculus [9] it was 10 mg/kg; in the series on Mus musculus [12], 58 mg/kg; with Mus musculus [16], 8.9 mg/kg. Moreover, the “Ratio TD50/ED50” value in the series with Rattus norvegicus [3] is above 42; in the series on Mus musculus [10], 5.4. For the same compound, the TD50 at 0.5 h was 30 mg/kg in series [5] and 46 mg/kg in series [7]. Moreover, the Time in the series on Mus musculus [6], with Rattus norvegicus [8] and in the series with Mus musculus [15] was 0.5 h throughout. The TD50 in series [11] was above 500 mg/kg. In addition, the result in the series on Mus musculus [13] and in the series with Mus musculus [14] was inactive.
Consider `COC[C@@H](N)C(=O)NCc1ccc(Br)cc1.Cl`, for which the results for the “Ratio TD50/ED50” value in the series on Mus musculus [17] and in the series with Mus musculus [10] were 1.6 and 3.7, respectively. Also, in [7], the TD50 at 0.5 h is 115 mg/kg. Moreover, the ED50 is 70 mg/kg in the series on Mus musculus [18], above 180 mg/kg in the series with Mus musculus [12] and 31 mg/kg with Mus musculus [16]. Also, in the series on Mus musculus [14], the result was inactive.
As to `CC(C)[C@@H](N)C(=O)NCc1ccccc1`, the ED50 in the series on Rattus norvegicus [2] was 11 mg/kg; in the series on Mus musculus [4] it was below 100 mg/kg; in the series on Mus musculus [9] it was 15 mg/kg; in the series on Mus musculus [20] it was 15 mg/kg; in the series on Mus musculus [18], 20 mg/kg; in the series on Mus musculus [12], 74 mg/kg. Besides, the results for the “Ratio TD50/ED50” value with Rattus norvegicus [3], in the series with Mus musculus [10] and in the series on Mus musculus [22] were above 45, 2.9 and 4.8, respectively. Further, the MAC in the series with Mus musculus [19] was 16 mg/kg. In addition, the TD50 at 0.5 h in [5] was determined as 70 mg/kg; in series [7], 47 mg/kg. The Time with Mus musculus [6], with Rattus norvegicus [8], in the series on Mus musculus [21], with Mus musculus [15] and in the series on Mus musculus [23] was 0.25 h throughout. Moreover, the TD50 in series [11] was above 500 mg/kg.
For `COC[C@@H](N)C(=O)NCc1ccc(-c2ccccc2)cc1.Cl`, the ED50 in the series on Mus musculus [18] was above 33 mg/kg; in the series with Mus musculus [16], 15 mg/kg. Besides, the MAC in the series on Mus musculus [24] came out at 59 mg/kg. Further, the outcome with Mus musculus [14] was inactive.
